The values below come from ChEMBL document CHEMBL1201862, “PubChem BioAssay data set” (2004).

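48-hour exposure; five concentrations; linearly interpolated endpoints. GI50 marks 50% less growth.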 The source made the active and inactive calls. Cut-off read from the data, not from the text of the source: active = GI50 up to about 1.1 µM and inactive = higher. Bounds are passed on as bounds.

Test systems include A498; HCC 2998; HT-29; K562; LOX IMVI; MDA-MB-435; NCI-H460; NCI-H522; OVCAR-3; OVCAR-4; SF-268; SF-295; SK-MEL-28; SK-MEL-2; SN12C; T47D; TK-10; U-251; UACC-62; UO-31.
Common to all, as to experiment: growth of human tumour cells (NCI), 48 h

In the case of `O=C1N[C@@H]2c3c(Br)sc(Br)c3C(=O)[C@@H]2O1`, the GI50 in the assay with A498 was 16.7 µM (inactive); in the assay on HCC 2998, 3.69 µM (inactive); with HT-29 it was 1.9 µM (inactive); in the assay on K562, 0.887 µM (active); with LOX IMVI it was 1.83 µM (inactive); in the assay with MDA-MB-435, 2.47 µM (inactive). Besides, the GI50 in the assay with NCI-H460 was 8.67 µM (inactive); in the assay on NCI-H522, 0.703 µM (active); in the assay on OVCAR-3, 1.8 µM (inactive); with OVCAR-4 it was 1.79 µM (inactive); in the assay with SF-268, 7.66 µM (inactive); with SF-295 it was 17.2 µM (inactive). The GI50 is 2.62 µM (inactive) in the assay with SK-MEL-28; 16.8 µM (inactive) in the assay with SK-MEL-2; 2.93 µM (inactive) in the assay on SN12C; 9.18 µM (inactive) with T47D; 6 µM (inactive) in the assay with TK-10; 2.39 µM (inactive) in the assay on U-251. Further, the GI50 in the assay with UACC-62 is 13.2 µM (inactive); in the assay with UO-31, 10.1 µM (inactive).

Regarding `CC(=O)Nc1ccc(OC/C(N)=N/NC(=O)c2ccncc2)cc1`, the GI50 in the assay with A498, in the assay with HCC 2998, with HT-29, with K562, with LOX IMVI and with MDA-MB-435 was > 100 µM (inactive) throughout. The GI50 in the assay with NCI-H460, with NCI-H522, in the assay with OVCAR-3, in the assay on OVCAR-4, with SF-268 and in the assay with SF-295 was > 100 µM (inactive) throughout. The GI50 with SK-MEL-28, in the assay on SK-MEL-2, in the assay with SN12C, in the assay on T47D, in the assay with TK-10 and in the assay with U-251 was > 100 µM (inactive) in each case. Further, the GI50 in the assay with UACC-62 was > 100 µM (inactive).

In the case of `CCCCCCCCCC(=O)CC(=O)c1c(O)cc(O)cc1O`, the GI50 was 22.6 µM (inactive) with A498; 18.8 µM (inactive) in the assay with HCC 2998; 17.1 µM (inactive) in the assay on HT-29; 15.2 µM (inactive) in the assay on K562; 17.4 µM (inactive) in the assay on LOX IMVI; 16.9 µM (inactive) in the assay with MDA-MB-435. The GI50 with NCI-H522 was 20.2 µM (inactive); in the assay on OVCAR-3, 16.4 µM (inactive); in the assay with OVCAR-4, 16.3 µM (inactive); with SF-268 it was 18.4 µM (inactive); in the assay with SF-295 it was 25.9 µM (inactive); with SK-MEL-28 it was 23.3 µM (inactive). Further, the GI50 in the assay on SK-MEL-2 is 17.7 µM (inactive); in the assay on SN12C, 20.6 µM (inactive); in the assay on T47D, 34.7 µM (inactive); with TK-10 it was 30.4 µM (inactive); in the assay on U-251, 23.8 µM (inactive); in the assay on UO-31 it was 15.5 µM (inactive).

In the case of `O=c1[nH]cc(-c2c[nH]c3ccccc23)nc1-c1c[nH]c2ccccc12`, the GI50 in the assay on A498 is 14.7 µM (inactive); with HCC 2998 it was 9.57 µM (inactive); in the assay on K562, 2.96 µM (inactive); in the assay on LOX IMVI it was 11.2 µM (inactive); in the assay with MDA-MB-435, 3.29 µM (inactive); with NCI-H460, 13.8 µM (inactive). Besides, the GI50 in the assay on NCI-H522 is 6.79 µM (inactive); with OVCAR-3, 9.51 µM (inactive); in the assay with OVCAR-4, 6.58 µM (inactive); with SF-268, 13 µM (inactive); in the assay with SF-295, 4.53 µM (inactive); in the assay on SK-MEL-28, 15.2 µM (inactive). Further, the GI50 with SK-MEL-2 is 14.8 µM (inactive); with SN12C it was 13.2 µM (inactive); in the assay on T47D, 8.55 µM (inactive); with TK-10, 11.7 µM (inactive); in the assay on U-251, 21 µM (inactive); in the assay with UACC-62, 11.1 µM (inactive). Besides, the GI50 in the assay with UO-31 is 8.51 µM (inactive).

Regarding `Cc1cc(C)n(CN(Cn2nc(C)cc2C)C2CCCCC2)n1`, the GI50 was > 100 µM (inactive) with A498; 14.6 µM (inactive) in the assay with HCC 2998; 21.1 µM (inactive) with HT-29; 0.0652 µM (active) in the assay with LOX IMVI; 22.2 µM (inactive) in the assay with MDA-MB-435; 61.8 µM (inactive) with NCI-H460. For the same compound, the GI50 in the assay on NCI-H522 was 20.7 µM (inactive); in the assay with OVCAR-3, 25.9 µM (inactive); with OVCAR-4, 24.2 µM (inactive); in the assay on SF-268 it was 33 µM (inactive); in the assay with SF-295, 94 µM (inactive); in the assay with SK-MEL-28, 20.7 µM (inactive). The GI50 was 17.6 µM (inactive) in the assay with SK-MEL-2; 27.5 µM (inactive) in the assay with SN12C; 28.2 µM (inactive) in the assay on T47D; 44.4 µM (inactive) in the assay with TK-10; 32.1 µM (inactive) in the assay on U-251; 21.5 µM (inactive) with UACC-62. Also, in the assay on UO-31, the GI50 was 20.8 µM (inactive).

For the compound `Cc1cn(C2CC(N=[N+]=[N-])C(CO[Si](C)(C)C(C)(C)C)O2)c(=O)[nH]c1=O` (configuration not stated), the GI50 with A498 is 16.1 µM (inactive); in the assay with HCC 2998 it was 12.6 µM (inactive); in the assay with HT-29 it was 16.8 µM (inactive); in the assay with K562 it was 20.8 µM (inactive); with LOX IMVI it was 16.9 µM (inactive); in the assay with MDA-MB-435, 18 µM (inactive). For the same compound, the GI50 was 16.8 µM (inactive) in the assay on NCI-H522; 16.9 µM (inactive) in the assay with OVCAR-3; 14.2 µM (inactive) with OVCAR-4; 19.5 µM (inactive) in the assay on SF-268; 17.3 µM (inactive) in the assay on SF-295; 15.2 µM (inactive) with SK-MEL-2. Further, the GI50 in the assay with SN12C was 15.6 µM (inactive); with T47D, 29.4 µM (inactive); with TK-10, 16.3 µM (inactive); with U-251, 18.1 µM (inactive); in the assay with UACC-62, 14.6 µM (inactive); with UO-31, 16.6 µM (inactive).

For `CCOC(=O)CCC(C(=O)OCC)n1nc2ccc(Nc3c(C)[n+]([O-])c4cc(F)c(OCC)cc4[n+]3[O-])cc2n1` (configuration not stated), the GI50 with A498 is 52.4 µM (inactive); in the assay with HCC 2998, 35 µM (inactive); in the assay on HT-29 it was > 100 µM (inactive); with K562, > 100 µM (inactive); in the assay with LOX IMVI, > 100 µM (inactive); in the assay with MDA-MB-435, > 100 µM (inactive). The GI50 in the assay on NCI-H460 is 29.3 µM (inactive); in the assay with NCI-H522, 30.8 µM (inactive); in the assay on OVCAR-3, > 100 µM (inactive); in the assay on OVCAR-4 it was 47.6 µM (inactive); in the assay on SF-268, 14 µM (inactive); with SF-295, 36.1 µM (inactive). Besides, the GI50 in the assay on SK-MEL-2 is 50.2 µM (inactive); in the assay on SN12C, 91.2 µM (inactive); with T47D it was 66.1 µM (inactive); in the assay on TK-10 it was 42.7 µM (inactive); in the assay on U-251, 23.6 µM (inactive); in the assay with UACC-62 it was 36.3 µM (inactive). The GI50 in the assay on UO-31 is 52.4 µM (inactive).

For the compound `CCCNc1ncnc2c1ncn2C`, the GI50 was 22.9 µM (inactive) in the assay on A498; 78.7 µM (inactive) with HCC 2998; 53.1 µM (inactive) in the assay with K562; 31 µM (inactive) with LOX IMVI; > 100 µM (inactive) in the assay on MDA-MB-435; 41.8 µM (inactive) with NCI-H522. The GI50 in the assay with OVCAR-3 is 58.5 µM (inactive); with OVCAR-4 it was > 100 µM (inactive); in the assay with SF-295, 40.6 µM (inactive); in the assay with SK-MEL-28, > 100 µM (inactive); with SK-MEL-2 it was > 100 µM (inactive); in the assay with SN12C, 27.4 µM (inactive). For the same compound, the GI50 is 44.4 µM (inactive) in the assay on T47D; > 100 µM (inactive) in the assay on TK-10; > 100 µM (inactive) in the assay with U-251; 45.1 µM (inactive) in the assay with UACC-62; 85.1 µM (inactive) in the assay with UO-31.

For the compound `CNc1ncnc2c1ncn2C1C=CC(COS(N)(=O)=O)C1` (configuration not stated), the GI50 in the assay on A498, in the assay on HCC 2998, with HT-29, in the assay on K562, in the assay with LOX IMVI and with MDA-MB-435 was > 100 µM (inactive) throughout. Moreover, the GI50 in the assay with NCI-H460, in the assay on NCI-H522, in the assay with OVCAR-3, with OVCAR-4, with SF-268 and in the assay on SF-295 was > 100 µM (inactive) each time. In addition, the GI50 with SK-MEL-28, in the assay with SK-MEL-2, in the assay on SN12C, in the assay with T47D, in the assay with U-251 and in the assay with UACC-62 was > 100 µM (inactive) in each case. For the same compound, in the assay with UO-31, the GI50 was > 100 µM (inactive).

With `C/C=C(\C)C(=O)OC1/C=C(\C)CC/C=C(\C)CC2OC(=O)C(C)(OC(C)=O)C12` (configuration not stated), the GI50 in the assay on A498, in the assay with HCC 2998, in the assay on HT-29, in the assay with K562, in the assay on LOX IMVI and in the assay with MDA-MB-435 was > 100 µM (inactive) throughout. The GI50 in the assay with NCI-H460, with NCI-H522, in the assay on OVCAR-3, with OVCAR-4, with SF-268 and in the assay on SF-295 was > 100 µM (inactive) each time. The GI50 with SK-MEL-28, with SK-MEL-2, with SN12C, with T47D, with TK-10 and in the assay with U-251 was > 100 µM (inactive) each time. Also, in the assay with UACC-62, the GI50 is > 100 µM (inactive).
